According to patent US20260285866A1, “MODULATORS OF TRPML, THEIR COMPOSITIONS AND METHODS OF USE” (Caraway Therapeutics, Inc., priority 2024, published 2026):

Legend:
Assay type in all cases: cell-based
[1] = target: T1, Human TRPML3 (Homo sapiens, UniProt Q8TDD5); test: Fluorescent TRPML3 assay (as for TRPML1); settings: fluorescent calcium assay as for TRPML1, TRPML3 subtype
T1 construct: expressed in transfected cells
T1 sequence (Q8TDD5 1-553): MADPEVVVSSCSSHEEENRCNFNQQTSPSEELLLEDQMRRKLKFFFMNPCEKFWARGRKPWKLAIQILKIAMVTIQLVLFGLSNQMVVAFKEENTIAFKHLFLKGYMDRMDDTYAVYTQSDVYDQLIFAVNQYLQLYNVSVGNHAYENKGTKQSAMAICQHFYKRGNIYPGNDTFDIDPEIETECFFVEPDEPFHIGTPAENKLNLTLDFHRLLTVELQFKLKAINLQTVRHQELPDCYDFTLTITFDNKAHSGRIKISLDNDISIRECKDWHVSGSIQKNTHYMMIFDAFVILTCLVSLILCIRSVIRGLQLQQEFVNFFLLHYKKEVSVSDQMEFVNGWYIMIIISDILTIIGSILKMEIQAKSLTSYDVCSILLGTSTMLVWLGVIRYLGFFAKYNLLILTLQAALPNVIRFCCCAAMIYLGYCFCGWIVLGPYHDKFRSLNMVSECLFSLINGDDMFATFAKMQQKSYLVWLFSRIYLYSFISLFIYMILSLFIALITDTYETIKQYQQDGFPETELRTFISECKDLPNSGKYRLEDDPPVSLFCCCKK
Summary of the method: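 Tet-inducible HEK-293 Trex cells expressing human TRPML2 or TRPML3, induced overnight with 0.5 μg/mL doxycycline, loaded with 1 μM Fluo4-AM and suspended in Ringer's solution with 10 mM calcium. Compounds tested in triplicate from 20 μM to 6 nM final in half-log steps; fluorescence at 480/540 nm. EC50 by non-linear regression, binned A–D.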

[2] = target: T2, Human TRPML2 (Homo sapiens, UniProt Q8IZK6); test: Fluorescent TRPML2 assay (as for TRPML1); settings: fluorescent calcium assay as for TRPML1, TRPML2 subtype
T2 construct: expressed in transfected cells
T2 sequence (Q8IZK6 1-566): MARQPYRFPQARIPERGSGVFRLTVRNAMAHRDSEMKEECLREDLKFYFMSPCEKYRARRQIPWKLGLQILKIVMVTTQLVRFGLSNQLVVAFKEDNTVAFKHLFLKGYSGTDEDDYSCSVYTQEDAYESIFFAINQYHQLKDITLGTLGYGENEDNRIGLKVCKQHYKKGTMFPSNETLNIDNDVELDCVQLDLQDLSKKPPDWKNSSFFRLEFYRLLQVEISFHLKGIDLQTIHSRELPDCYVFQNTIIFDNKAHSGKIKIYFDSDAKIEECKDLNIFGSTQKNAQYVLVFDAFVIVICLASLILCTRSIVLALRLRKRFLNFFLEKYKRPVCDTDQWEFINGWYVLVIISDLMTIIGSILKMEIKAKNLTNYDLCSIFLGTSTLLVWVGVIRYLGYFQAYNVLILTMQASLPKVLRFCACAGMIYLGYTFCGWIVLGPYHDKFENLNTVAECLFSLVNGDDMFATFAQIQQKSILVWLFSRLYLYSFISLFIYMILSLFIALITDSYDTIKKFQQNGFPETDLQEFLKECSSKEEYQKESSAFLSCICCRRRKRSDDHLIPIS
Experimental: HEK-293 Trex cells were stably transfected with a construct consisting of the human coding sequence for TRPML1 cloned into the tet-inducible plasmid pCDNA5 T/O. Mutations were introduced into the TRPML1 sequence to facilitate expression on the cell surface (Silvia Vergarajauregui, Rosa Puertollano Traffic. 2006 March; 7(3): 337-353). Briefly, the cells are cultured in 150 mm round tissue culture dishes containing 20 mL of media. The day before the assay the cells are rinsed with DPBS-Ca-Mg and then treated briefly with Trypsin-EDTA. The Trypsin-EDTA is diluted with growth media, and cells are counted. 38×10^6 cells are re-plated into 150 mm round tissue culture dishes in media containing 0.5 μg/mL doxycycline to induce expression of hTRPML1.
The day of the experiment cells are lifted from the plates as above and collected by centrifugation. The cells are then suspended in dye loading buffer consisting of Ringer's solution supplemented with 0.1% Pluronic Acid and 1 micromolar Fluo4-AM dye. Cells are loaded for ~60 minutes in the dark with occasional mixing. The cells are collected by centrifugation, the loading media aspirated, and the cells resuspended in 25 mL Ringer's solution and incubated ~60 minutes in the dark. The cells are again collected by centrifugation, rinsed in Ringer's Solution and resuspended to 0.2×10^6 cells/mL in modified Ringer's solution containing 10 mM calcium.
Compounds are dissolved to a concentration of 10 millimolar with DMSO. Compound plates are created by dispensing compounds into 384 well black wall clear bottom plates (Greiner 781091). Positive and negative controls are included on each plate. Typically, different amounts of each compound are tested ranging from 100 nanoMoles (20 micromolar final concentration) decreasing in half-log steps to 31 picoMoles (6 nanomolar final concentration). Each concentration is typically tested in triplicate.
50 microliters of dye-loaded cells are dispensed into each well of the compound assay plate created above. The fluorescence in each well is then determined with an excitation wavelength of 480 nm and an emission wavelength of 540 nm using either a Molecular Devices SpectraMax multimode plate reader or a Hamamatsu FDSS/uCell plate imager.
The resulting fluorescence for each well is exported as an ascii file and loaded into our LIMS for analysis. The percent activity of each compound at each concentration is determined by comparison to the positive and negative control wells included in each plate.
Assays for TRPML2 and TRPML3 were performed as above for TRPML1, by substituting the appropriate TRPML2 or TRPML3 subtype for the TRPML1.
EC50 values were calculated using a non-linear regression of Prism. In the table, “A” indicates an EC50 of less than 100 nM, “B” indicates an EC50 range from 100 nM to 500 nM: “C” indicates an EC50 range from 500 nM to 2 μM; and “D” indicates an EC50 greater than 2 μM.

[3] = target: Human TRPML1 (Homo sapiens, UniProt Q9GZU1, L15A/L16A/L577A/L578A); test: Fluorescent TRPML1 assay (Fluo4-AM, HEK-293 Trex cells expressing hTRPML1); settings: fluorescent calcium assay, doxycycline-induced hTRPML1
Summary of the method: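 Doxycycline-induced (0.5 μg/mL) HEK-293 Trex cells stably expressing surface-targeted mutant hTRPML1, loaded with 1 μM Fluo4-AM, then suspended in modified Ringer's with 10 mM calcium and added to compounds (20 μM to 6 nM final, half-log steps, triplicate). Fluorescence read at ex 480/em 540; percent activity versus plate controls, EC50 by non-linear regression.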

Chain of Human TRPML1 (Q9GZU1 whole entry L15A/L16A/L577A/L578A): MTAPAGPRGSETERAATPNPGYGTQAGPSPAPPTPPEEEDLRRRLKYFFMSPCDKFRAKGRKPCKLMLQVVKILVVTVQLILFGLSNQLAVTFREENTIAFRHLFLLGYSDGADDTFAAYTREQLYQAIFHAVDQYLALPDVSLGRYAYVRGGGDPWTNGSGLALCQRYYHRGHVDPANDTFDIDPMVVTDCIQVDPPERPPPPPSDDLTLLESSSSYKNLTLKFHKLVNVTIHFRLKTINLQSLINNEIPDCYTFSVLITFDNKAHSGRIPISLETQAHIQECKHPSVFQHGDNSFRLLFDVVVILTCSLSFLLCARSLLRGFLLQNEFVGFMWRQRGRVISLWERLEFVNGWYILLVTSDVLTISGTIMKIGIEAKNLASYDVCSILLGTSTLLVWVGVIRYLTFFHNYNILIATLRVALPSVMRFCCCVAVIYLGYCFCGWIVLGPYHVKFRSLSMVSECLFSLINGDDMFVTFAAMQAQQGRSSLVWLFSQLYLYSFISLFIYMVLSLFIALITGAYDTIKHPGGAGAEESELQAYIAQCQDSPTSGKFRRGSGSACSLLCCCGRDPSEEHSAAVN

SMILES	EC50 [1] [nM]	EC50 [2] [nM]	EC50 [3] [nM]
CCOC(C)(C)C(=O)N1C[C@H](C)N(c2ncnc3c2c(-c2ccccc2F)cn3-c2cc(C#N)ccn2)C[C@H]1C [Compound 164, 2-(4-((2S,5R)-4-(2-ethoxy-2-methylpropanoyl)-2,5-dimethylpiperazin-1-yl)-5-(2-fluorophenyl)-7H-pyrrolo[2,3-d]pyrimidin-7-yl)isonicotinonitrile]	< 100	< 100	< 100
C[C@@H]1CN(c2ncnc3c2c(-c2ccccc2F)cn3-c2cc(C#N)ccn2)[C@@H](C)CN1C(=O)C(C)(C)OCC(F)(F)F [Compound 165, 2-(4-((2S,5R)-2,5-dimethyl-4-(2-methyl-2-(2,2,2-trifluoroethoxy)propanoyl)piperazin-1-yl)-5-(2-fluorophenyl)-7H-pyrrolo[2,3-d]pyrimidin-7-yl)isonicotinonitrile]	< 100	< 100	< 100
CCOC(C)(C)C(=O)N1C[C@H](C)N(c2ncnc3c2c(-c2ccncc2)cn3-c2cc(C#N)ccn2)C[C@H]1C [Compound 171, -(4-((2S,5R)-4-(2-ethoxy-2-methylpropanoyl)-2,5-dimethylpiperazin-1-yl)-5-(pyridin-4-yl)-7H-pyrrolo[2,3-d]pyrimidin-7-yl)isonicotinonitrile]	500 to 2000	> 2000	100 to 500
COC1(C(=O)N2C[C@H](C)N(c3ncnc4c3c(-c3ccccc3F)cn4-c3cc(C#N)ccn3)C[C@H]2C)CN(C)C1 [Compound 163, 2-(5-(2-fluorophenyl)-4-((2S,5R)-4-(3-methoxy-1-methylazetidine-3-carbonyl)-2,5-dimethylpiperazin-1-yl)-7H-pyrrolo[2,3-d]pyrimidin-7-yl)isonicotinonitrile]	< 100	> 2000	< 100
C[C@@H]1CN(c2ncnc3c2c(-c2ccccc2)cn3-c2cc(C#N)ccn2)[C@@H](C)CN1C(=O)CC(C)(C)O [Compound 159, 2-(4-((2S,5R)-4-(3-hydroxy-3-methylbutanoyl)-2,5-dimethylpiperazin-1-yl)-5-phenyl-7H-pyrrolo[2,3-d]pyrimidin-7-yl)isonicotinonitrile]	100 to 500	500 to 2000	< 100
CCOC(C)(C)C(=O)N1C[C@H](C)N(c2ncnc3c2c(N2CCC2)cn3-c2cc(C#N)ccn2)C[C@H]1C [Compound 173]	100 to 500	500 to 2000	< 100
C[C@@H]1CN(c2ncnc3c2c(-c2ccncc2)cn3-c2cc(C#N)ccn2)[C@@H](C)CN1C(=O)C(C)(C)O [Compound 125, 2-(4-((2S,5R)-4-(2-hydroxy-2-methylpropanoyl)-2,5-dimethylpiperazin-1-yl)-5-(pyridin-4-yl)-7H-pyrrolo[2,3-d]pyrimidin-7-yl)isonicotinonitrile]	500 to 2000	> 2000	100 to 500
CCOC(C)(C)C(=O)N1C[C@H](C)N(c2ncnc3c2c(C2CC2)cn3-c2cc(C#N)ccn2)C[C@H]1C [Compound 172, 2-(5-cyclopropyl-4-((2S,5R)-4-(2-ethoxy-2-methylpropanoyl)-2,5-dimethylpiperazin-1-yl)-7H-pyrrolo[2,3-d]pyrimidin-7-yl)isonicotinonitrile]	500 to 2000	500 to 2000	< 100
C[C@@H]1CN(c2ncnc3c2c(-c2ccccc2F)cn3-c2cc(C#N)ccn2)[C@@H](C)CN1C(=O)CC(C)(C)O [Compound 158, 2-(5-(2-fluorophenyl)-4-((2S,5R)-4-(3-hydroxy-3-methylbutanoyl)-2,5-dimethylpiperazin-1-yl)-7H-pyrrolo[2,3-d]pyrimidin-7-yl)isonicotinonitrile]	< 100	> 2000	100 to 500
C[C@@H]1CN(c2ncnc3c2c(-c2ccccc2)cn3-c2cc(C#N)ccn2)[C@@H](C)CN1C(=O)C(O)(C(F)(F)F)C(F)(F)F [Compound 110, 2-(4-((2S,5R)-2,5-dimethyl-4-(3,3,3-trifluoro-2-hydroxy-2-(trifluoromethyl)propanoyl)piperazin-1-yl)-5-phenyl-7H-pyrrolo[2,3-d]pyrimidin-7-yl)isonicotinonitrile]	100 to 500	> 2000	< 100
C[C@@H]1CN(c2ncnc3c2c(-c2ccncc2)cn3-c2cc(C#N)ccn2)[C@@H](C)CN1C(=O)C1(O)CCCC1 [Compound 150, 2-(4-((2S,5R)-4-(1-hydroxycyclopentane-1-carbonyl)-2,5-dimethylpiperazin-1-yl)-5-(pyridin-4-yl)-7H-pyrrolo[2,3-d]pyrimidin-7-yl)isonicotinonitrile]	100 to 500	500 to 2000	< 100
C[C@@H]1CN(c2ncnc3c2c(-c2ccncc2)cn3-c2cccc(OC(F)(F)F)c2)[C@@H](C)CN1C(=O)C(C)(C)O [Compound 148, 1-((2R,5S)-2,5-dimethyl-4-(5-(pyridin-4-yl)-7-(3-(trifluoromethoxy)phenyl)-7H-pyrrolo[2,3-d]pyrimidin-4-yl)piperazin-1-yl)-2-hydroxy-2-methylpropan-1-one]	> 2000	> 2000	500 to 2000
C[C@@H]1CN(c2ncnc3c2c(-c2ccccc2)cn3-c2cc(C#N)ccn2)[C@@H](C)CN1C(=O)C1(O)COC1 [Compound 120, 2-(4-((2S,5R)-4-(3-hydroxyoxetane-3-carbonyl)-2,5-dimethylpiperazin-1-yl)-5-phenyl-7H-pyrrolo[2,3-d]pyrimidin-7-yl)isonicotinonitrile]	500 to 2000	> 2000	100 to 500
Cc1cnccc1-c1cn(-c2cc(C#N)ccn2)c2ncnc(N3C[C@@H](C)N(C(=O)C(C)(C)O)C[C@@H]3C)c12 [Compound 147, 2-(4-((2S,5R)-4-(2-hydroxy-2-methylpropanoyl)-2,5-dimethylpiperazin-1-yl)-5-(3-methylpyridin-4-yl)-7H-pyrrolo[2,3-d]pyrimidin-7-yl)isonicotinonitrile]	500 to 2000	> 2000	500 to 2000
